According to the supplement of paper PMC7224384:

Assays:
MDA-MB-453 [1] = assay: drug sensitivity score (DSS), in combination with BLU9931 (DSS (weighted AUC score)); higher = more sensitive (stronger viability decrease); extreme values may be limits of the assay; conditions: BLU9931 100 nM; 72 h
Procedure, shortened: (§1)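 Compounds from the FIMM Oncology set were predispensed in singlicate at five 10-fold dilutions (10,000-fold range) on 384-well plates. Each well then received 2000 MDA-MB-453 cells in medium with or without an FGFR4 inhibitor (100 nM final) and was kept at 37 °C, 5% CO2. Cellular ATP was read with CellTiterGlo 2.0 after 72 h and normalised per plate to percent viability from control wells. The drug sensitivity score is a weighted area under a four-parameter logistic fit.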

MDA-MB-453 [2] = assay: drug sensitivity score (DSS), single agent (DSS (weighted AUC score)); higher = more sensitive (stronger viability decrease); extreme values may be limits of the assay; conditions: BLU9931 0 nM; 72 h
Procedure, shortened: as §1

Row | SMILES | drug sensitivity score (MDA-MB-453 [1]) | drug sensitivity score (MDA-MB-453 [2])
1 | O=c1[nH]c(C2CCCN2)nc2c1oc1ccc(Cl)cc12 (centres undefined) | 0.5 | 0
2 | CCCc1cc(C)[nH]c(=O)c1CNC(=O)c1cc(-c2ccnc(N3CCN(C)CC3)c2)cc2c1cnn2C(C)C [GSK343] | 0 | 0
3 | C[C@H]1CNCCCN1S(=O)(=O)c1cccc2cncc(F)c12 [Ripasudil] | 0.1 | 0
4 | CNC(=O)c1cc(Oc2ccc(NC(=O)Nc3ccc(Cl)c(C(F)(F)F)c3)c(F)c2)ccn1 [Regorafenib] | 1.5 | 3
5 | COc1cc2c(Oc3ccc4[nH]c(C)cc4c3F)ncnc2cc1OCCCN1CCCC1 [Cediranib] | 0 | 0
6 | Cn1c(=O)n(-c2ccc(C(C)(C)C#N)cc2)c2c3cc(-c4cnc5ccccc5c4)ccc3ncc21 [Dactolisib] | 18.3 | 16.3
7 | Cc1c(-c2ccc(N3CCc4cccc(C(=O)Nc5nc6ccccc6s5)c4C3)nc2C(=O)O)cnn1CC12CC3CC(CC(C3)C1)C2 | 5.4 | 1.4
8 | C=CCN(/C=C1/C(=O)O[C@H](COC)[C@@]2(C)C1=C(O)C(=O)C1=C2[C@H](OC(C)=O)C[C@]2(C)C(=O)CC[C@@H]12)CC=C [Sonolisib] | 0 | 0
9 | N#Cc1ccnc(N2C(=O)CC[C@H]2C(=O)N(c2cncc(F)c2)[C@H](C(=O)NC2CC(F)(F)C2)c2ccccc2Cl)c1 [Ivosidenib] | 0 | 0
10 | CC[C@H](Nc1ncnc2[nH]cnc12)c1nc2cccc(F)c2c(=O)n1-c1ccccc1 [Idelalisib] | 2 | 1.7
11 | Nc1ccccc1NC(=O)c1ccc(CNc2nccc(-c3cccnc3)n2)cc1 [Mocetinostat] | 17.7 | 16
12 | CCOC(=O)C1=CCCC[C@H]1S(=O)(=O)Nc1ccc(F)cc1Cl [Resatorvid] | 0 | 0
13 | Oc1ncnc2[nH]ncc12 [Allopurinol] | 0.3 | 0.1
14 | N#CC(c1ccnc(OCc2ccc(CN3CCOCC3)cc2)n1)c1nc2ccccc2s1 (centres undefined) [Bentamapimod] | 1.3 | 2.6
15 | Cc1nc2cccc(N)c2c(=O)n1C1CCC(=O)NC1=O (centres undefined) [CC122] | 0 | 0
16 | CCc1nc(C(N)=O)c(Nc2ccc(N3CCC(N4CCN(C)CC4)CC3)c(OC)c2)nc1NC1CCOCC1 [Gilteritinib] | 0 | 0
17 | CC[C@H](C)C(=O)O[C@H]1C[C@@H](C)C=C2C=C[C@H](C)[C@H](CC[C@@H]3C[C@@H](O)CC(=O)O3)[C@H]21 [Lovastatin] | 0 | 0
18 | Nc1ccn([C@@H]2O[C@H](CO)[C@@H](O)[C@@H]2O)c(=O)n1 [Cytarabine] | 0.1 | 0.8
19 | CC1=C2C[C@H]3[C@@H](CC[C@@H]4C[C@H](NS(C)(=O)=O)CC[C@@]43C)[C@@H]2CC[C@@]2(C1)O[C@@H]1C[C@H](C)CN[C@H]1[C@H]2C [Saridegib] | 0 | 0
20 | COc1cc2c(cc1OCCCN1CCCC1)N=C(N)C21CCC1 [A-366] | 0 | 0
21 | CCNCCS(=O)(=O)NC[C@@]1(c2ccccc2)SC(NC(=O)C(C)(C)C)=NN1C(=O)C(C)(C)C [Litronesib] | 13 | 17.3
22 | COc1cccc2c1C(=O)c1c(O)c3c(c(O)c1C2=O)C[C@@](O)(C(=O)CO)C[C@@H]3O[C@H]1C[C@H](N)[C@@H](O)[C@H](C)O1 [Epirubicin] | 5.9 | 7.3
23 | COc1ccc(S(=O)(=O)Nc2cccnc2Nc2ccc(O)cc2)cc1 [ABT-751] | 7.9 | 7.4
24 | COc1cc(Nc2ncc(F)c(Nc3ccc4c(n3)NC(=O)C(C)(C)O4)n2)cc(OC)c1OC [Tamatinib] | 0 | 0
25 | CC#CC(=O)N1CCC[C@H]1c1nc(-c2ccc(C(=O)Nc3ccccn3)cc2)c2c(N)nccn12 [Acalabrutinib] | 2.4 | 4.2
26 | Cn1nnc2c(C(N)=O)ncn2c1=O [Temozolomide] | 0 | 0
27 | COc1c(OCCCN2CCOCC2)ccc2c1N=C(NC(=O)c1cnc(N)nc1)N1CCN=C21 [Copanlisib] | 23.4 | 22.4
